From the NIST ThermoML archive (doi:10.1016/j.jct.2015.07.042) come the findings set out here.

Numbers after ± are expanded uncertainties.

The data set in a line: activity coefficient (dimensionless); of the first substance listed, at infinite dilution; xn = mol fraction of the nth substance listed. The conditions noted are these: 101 kPa, Liquid, Chromatography, x1 = 0.

Consider `CC(C)CO` [2-methyl-1-propanol] + CCCCn1cc[n+](C)c1.COP(=O)([O-])OC, for which the activity coefficient came out at 0.23 ± 0.029 (398.15 K), 0.254 ± 0.03 (408.15 K), 0.281 ± 0.03 (418.15 K) and 0.313 ± 0.031 (428.15 K).

Take `CC(C)CO` [2-methyl-1-propanol] + CCCCn1cc[n+](C)c1.CS(=O)(=O)[O-]: the activity coefficient runs as follows: (398.15 K) 0.893 ± 0.057; (408.15 K) 0.938 ± 0.059; (418.15 K) 0.991 ± 0.062; (428.15 K) 1.04 ± 0.066.

In the case of `CC(C)CO` [2-methyl-1-propanol] + CCCCn1cc[n+](C)c1.[Cl-], the activity coefficient (398.15 K) came out at 0.54 ± 0.039, the activity coefficient (408.15 K) is 0.576 ± 0.041, the activity coefficient (418.15 K) was found to be 0.615 ± 0.043 and the activity coefficient (428.15 K) is 0.665 ± 0.045.

Consider `CC(C)(C)O` [2-methylpropan-2-ol] + CCCCn1cc[n+](C)c1.COP(=O)([O-])OC, for which the activity coefficient is, setting by setting: (398.15 K) 0.419 ± 0.035; (408.15 K) 0.471 ± 0.037; (418.15 K) 0.527 ± 0.039; (428.15 K) 0.592 ± 0.042.

Regarding `CC(C)(C)O` [2-methylpropan-2-ol] + CCCCn1cc[n+](C)c1.CS(=O)(=O)[O-], the activity coefficient is, setting by setting: (398.15 K) 1.28 ± 0.083; (408.15 K) 1.39 ± 0.09; (418.15 K) 1.48 ± 0.098; (428.15 K) 1.59 ± 0.11.

With `CC(C)(C)O` [2-methylpropan-2-ol] + CCCCn1cc[n+](C)c1.[Cl-], the activity coefficient reads like this: (398.15 K) 0.987 ± 0.062; (408.15 K) 1.07 ± 0.067; (418.15 K) 1.16 ± 0.074; (428.15 K) 1.27 ± 0.082.

`C=C(C)c1ccccc1` [(1-methylethenyl)benzene] + CCCCn1cc[n+](C)c1.COP(=O)([O-])OC: the activity coefficient came to 4.57 ± 0.31 (358.15 K), 4.77 ± 0.33 (368.15 K), 4.98 ± 0.34 (378.15 K) and 5.29 ± 0.36 (388.15 K).

For `C=C(C)c1ccccc1` [(1-methylethenyl)benzene] + CCCCn1cc[n+](C)c1.CS(=O)(=O)[O-], the activity coefficient was 6.43 ± 0.44 (358.15 K), 6.71 ± 0.46 (368.15 K), 6.96 ± 0.47 (378.15 K) and 7.41 ± 0.51 (388.15 K).

In the case of `C=C(C)c1ccccc1` [(1-methylethenyl)benzene] + CCCCn1cc[n+](C)c1.[Cl-], the activity coefficient reads like this: (358.15 K) 9.01 ± 0.61; (368.15 K) 9.33 ± 0.64; (378.15 K) 9.83 ± 0.67; (388.15 K) 10.3 ± 0.71.

For the compound `CC(C)=O` [acetone] + CCCCn1cc[n+](C)c1.COP(=O)([O-])OC, the activity coefficient by setting is: (358.15 K) 1.92 ± 0.13; (368.15 K) 1.96 ± 0.13; (378.15 K) 2.02 ± 0.14; (388.15 K) 2.1 ± 0.14.

As for `CC(C)=O` [acetone] + CCCCn1cc[n+](C)c1.CS(=O)(=O)[O-], the activity coefficient reads like this: (358.15 K) 2.06 ± 0.14; (368.15 K) 2.12 ± 0.14; (378.15 K) 2.22 ± 0.15; (388.15 K) 2.3 ± 0.16.

`CC(C)=O` [acetone] + CCCCn1cc[n+](C)c1.[Cl-]: the activity coefficient by setting is: (358.15 K) 3.05 ± 0.21; (368.15 K) 3.12 ± 0.21; (378.15 K) 3.17 ± 0.22; (388.15 K) 3.27 ± 0.22.

In the case of `CC#N` [acetonitrile] + CCCCn1cc[n+](C)c1.COP(=O)([O-])OC, the activity coefficient runs as follows: (358.15 K) 0.88 ± 0.06; (368.15 K) 0.92 ± 0.06; (378.15 K) 0.95 ± 0.06; (388.15 K) 1 ± 0.06.

With `CC#N` [acetonitrile] + CCCCn1cc[n+](C)c1.CS(=O)(=O)[O-], the activity coefficient is, setting by setting: (358.15 K) 0.99 ± 0.06; (368.15 K) 1.03 ± 0.06; (378.15 K) 1.08 ± 0.07; (388.15 K) 1.12 ± 0.07.

Take `CC#N` [acetonitrile] + CCCCn1cc[n+](C)c1.[Cl-]: the activity coefficient is 1.12 ± 0.07 (358.15 K), 1.16 ± 0.07 (368.15 K), 1.21 ± 0.08 (378.15 K) and 1.28 ± 0.08 (388.15 K).

As for `c1ccccc1` [benzene] + CCCCn1cc[n+](C)c1.COP(=O)([O-])OC, the activity coefficient worked out at 2.33 ± 0.16 (358.15 K), 2.41 ± 0.16 (368.15 K), 2.49 ± 0.17 (378.15 K) and 2.63 ± 0.18 (388.15 K).

Turning to `c1ccccc1` [benzene] + CCCCn1cc[n+](C)c1.CS(=O)(=O)[O-], the activity coefficient by setting is: (358.15 K) 3.08 ± 0.21; (368.15 K) 3.19 ± 0.22; (378.15 K) 3.29 ± 0.22; (388.15 K) 3.46 ± 0.24.

Regarding `c1ccccc1` [benzene] + CCCCn1cc[n+](C)c1.[Cl-], the activity coefficient came to 4.51 ± 0.31 (358.15 K), 4.59 ± 0.31 (368.15 K), 4.72 ± 0.32 (378.15 K) and 4.82 ± 0.33 (388.15 K).

In the case of `CCCCO` [butan-1-ol] + CCCCn1cc[n+](C)c1.COP(=O)([O-])OC, the activity coefficient (398.15 K) was 0.247 ± 0.03, the activity coefficient (408.15 K) was found to be 0.271 ± 0.03, the activity coefficient (418.15 K) is 0.299 ± 0.031 and the activity coefficient (428.15 K) was 0.324 ± 0.032.

As for `CCCCO` [butan-1-ol] + CCCCn1cc[n+](C)c1.CS(=O)(=O)[O-], the activity coefficient (398.15 K) is 0.937 ± 0.059, the activity coefficient (408.15 K) worked out at 0.984 ± 0.062, the activity coefficient (418.15 K) is 1.02 ± 0.064 and the activity coefficient (428.15 K) was 1.07 ± 0.068.

For the compound `CCCCO` [butan-1-ol] + CCCCn1cc[n+](C)c1.[Cl-], the activity coefficient stood at 0.558 ± 0.04 (398.15 K), 0.594 ± 0.042 (408.15 K), 0.635 ± 0.044 (418.15 K) and 0.68 ± 0.046 (428.15 K).

On to `CCC(C)O` (configuration not stated) [butan-2-ol] + CCCCn1cc[n+](C)c1.COP(=O)([O-])OC, for which the activity coefficient (398.15 K) is 0.327 ± 0.032, the activity coefficient (408.15 K) amounted to 0.365 ± 0.033, the activity coefficient (418.15 K) was found to be 0.406 ± 0.034 and the activity coefficient (428.15 K) is 0.451 ± 0.036.

Regarding `CCC(C)O` (configuration not stated) [butan-2-ol] + CCCCn1cc[n+](C)c1.CS(=O)(=O)[O-], the activity coefficient reads like this: (398.15 K) 1.11 ± 0.071; (408.15 K) 1.18 ± 0.075; (418.15 K) 1.25 ± 0.081; (428.15 K) 1.33 ± 0.087.

As for `CCC(C)O` (configuration not stated) [butan-2-ol] + CCCCn1cc[n+](C)c1.[Cl-], the activity coefficient (398.15 K) was found to be 0.749 ± 0.049, the activity coefficient (408.15 K) worked out at 0.804 ± 0.052, the activity coefficient (418.15 K) turned out to be 0.865 ± 0.055 and the activity coefficient (428.15 K) is 0.931 ± 0.059.

Turning to `CCCC=O` [butanal] + CCCCn1cc[n+](C)c1.COP(=O)([O-])OC, the activity coefficient by setting is: (358.15 K) 2.66 ± 0.18; (368.15 K) 2.74 ± 0.19; (378.15 K) 2.82 ± 0.19; (388.15 K) 2.97 ± 0.2.

Consider `CCCC=O` [butanal] + CCCCn1cc[n+](C)c1.CS(=O)(=O)[O-], for which the activity coefficient was 3.33 ± 0.23 (358.15 K), 3.44 ± 0.23 (368.15 K), 3.58 ± 0.24 (378.15 K) and 3.74 ± 0.25 (388.15 K).

For `CCCC=O` [butanal] + CCCCn1cc[n+](C)c1.[Cl-], the activity coefficient is, setting by setting: (358.15 K) 5.24 ± 0.36; (368.15 K) 5.31 ± 0.36; (378.15 K) 5.43 ± 0.37; (388.15 K) 5.54 ± 0.38.

Regarding `C1CCCCCC1` [cycloheptane] + CCCCn1cc[n+](C)c1.COP(=O)([O-])OC, the activity coefficient is, setting by setting: (358.15 K) 15.1 ± 1; (368.15 K) 14.6 ± 1; (378.15 K) 14.3 ± 0.97; (388.15 K) 14 ± 0.96.
